“Also recorded” adds a separate entry of the source. Ends that are not written are not given here.

Experimental findings from US20110039762A1, “TARGETED ANTIMICROBIAL MOIETIES” (C3 JIAN, INC., priority 2009, published 2011) are described below.

The test system of one assay is MRSA. Kind of assay: Kill or inhibit growth/proliferation; morphology, biofilm and growth disruption (Tables 5, 6). Also: test concentration or dose not given here. It is filed as cell-based, Methicillin-resistant Staphylococcus aureus. Also noted: key: A: Peptide aggregates; B: Less hyphal formation; Clumps; Diffuse clumps and small polyps; F: Diffuse growth; H: Thin; I: Growth inhibition; Microcolony formation; Rippled; Small polyps; Thick; W: Halo formation on top, microlonies on bottom.

Assay [1] has as its system microorganisms (e.g., bacteria, yeasts, fungi). Put plainly: Targeting peptide binding to target microorganisms (Table 3). Conditions: preferably 1x PBS; for Target(s) (microorganisms bound by the targeting peptide): peptide binding in aqueous buffers varied by peptide solubility.
For the next assay, the system named is microorganisms. Kind of assay: Peptides having multiple activities (targeting/binding, antimicrobial, growth or phenotype altering). The source says:
In certain embodiments, peptides described herein can have multiple activities. Thus for example, a peptide can have both binding/targeting activity and antimicrobial activity. Such peptides can be used, e.g., in a chimeric construct, for any or all of these properties. Thus, for example, a peptide designated “B” in Table 8 can be used as a targeting peptide. If it is also designated G or M it can also be used for antimicrobial activity.

The next assay concerns S. pneumoniae. Put plainly: Kill or inhibit growth/proliferation; morphology, biofilm and growth disruption (Tables 5, 6). Also: test concentration or dose not given here. It is filed as cell-based, Streptococcus pneumoniae. Further details: key: A: Peptide aggregates; B: Less hyphal formation; Clumps; Diffuse clumps and small polyps; F: Diffuse growth; H: Thin; I: Growth inhibition; Microcolony formation; Rippled; Small polyps; Thick; W: Halo formation on top, microlonies on bottom.

Setting [2] is: microorganism the targeting peptide binds, binding in aqueous buffers varied by peptide solubility.
[3] abbreviates: microorganism(s) the targeting peptide binds, peptide binding conducted in aqueous buffers varied by peptide solubility.

Regarding “PF-015: peptide having multiple activities (chain 1 SIDKRNLYNLKYYE; chain 2 SIDKRNLYNLKYYE; Peptide with targeting and/or antimicrobial activity)”, the “Organism, effect” value with MRSA is given as “MRSA (W)”. Further, the “Target(s)” value in assay [1] (setting [2]) was “E. faecalis; also recorded: C. jeikeium”. The Activities entry in the assay with microorganisms was “G B”.
The like results for “PF-017: peptide having multiple activities (chain 1 ESIIE; chain 2 ESIIE; Peptide with targeting and/or antimicrobial activity)” were, in that order, “MRSA (M)”, “E. coli” and “G B”.
On to “PF-019 (NDTNK; Peptide with targeting and/or antimicrobial activity)”, for which the “Organism, effect” value in the assay with MRSA was “MRSA (M)”.
For the substance “PF-026: peptide having multiple activities (chain 1 SIHFIN; chain 2 SIHFIN; Peptide with targeting and/or antimicrobial activity)”, the “Organism, effect” value in the assay with MRSA was “MRSA (M)”. The “Target(s)” value in assay [1] (setting [2]) was “S. epidermidis and M. luteus and P. mirabilis and C. albicans and MRSA and E. faecalis and C. jeikeium”. For the same substance, the Activities result with microorganisms is on record as “G B”.
As for “PF-029: peptide having multiple activities (chain 1 NSTNE; chain 2 NSTNE; Peptide with targeting and/or antimicrobial activity)”, in the assay with MRSA, the “Organism, effect” value was “MRSA (M)”. Moreover, in assay [1] (setting [2]), the “Target(s)” value was “S. epidermidis; also recorded: M. luteus; also recorded: C. albicans; also recorded: C. jejuni”. Moreover, the Activities entry with microorganisms was “G B”.
As to “PF-031: peptide having multiple activities (chain 1 MPHHSTTSSRIVVPAHQSNMASTPNLSITP; chain 2 MPHHSTTSSRIVVPAHQSNMASTPNLSITP; Peptide with targeting and/or antimicrobial activity)”, the “Organism, effect” value in the assay with MRSA is reported as “MRSA (M)”. In assay [1] (setting [2]), the “Target(s)” value is listed as “M. luteus; also recorded: C. albicans”. The Activities result in the assay on microorganisms is on record as “G B”.
Consider “PF-035: peptide having multiple activities (chain 1 SFYESY; chain 2 SFYESY; Peptide with targeting and/or antimicrobial activity)”, for which the “Organism, effect” value in the assay with MRSA is recorded as “MRSA (M)”. The “Target(s)” value in assay [1] (setting [2]) was “S. epidermidis and M. luteus and E. coli and C. albicans and MRSA and C. jeikeium and C. jejuni”. Further, in the assay with microorganisms, the Activities result was “G B”.
Turning to “PF-045: peptide having multiple activities (chain 1 LDINDYRSTY; chain 2 LDINDYRSTY; Peptide with targeting and/or antimicrobial activity)”, the “Organism, effect” value with MRSA is given as “MRSA (S)”. Moreover, the “Target(s)” value in assay [1] (setting [2]) is “S. epidermidis; also recorded: E. coli; also recorded: E. faecalis; also recorded: C. jejuni”. The Activities entry in the assay with microorganisms was “G B”.
Regarding “PF-354: peptide having multiple activities (chain 1 FTFSKCRASNGRGFGTLWL; chain 2 FTFSKCRASNGRGFGTLWL; Peptide with targeting and/or antimicrobial activity)”, the “Organism, effect” value with MRSA was “MRSA (H)”. Further, in the assay on microorganisms, the Activities entry was “G B”.
“PF-515: peptide having multiple activities (chain 1 DKSTQDKDIKQAKLLAQELGL-NH2; chain 2 DKSTQDKDIKQAKLLAQELGL-NH2)”: the “Target(s)” value in assay [1] (setting [3]) is on record as “S. epidermidis; also recorded: C. albicans; also recorded: S. pneumoniae; also recorded: C. jeikeium”. Moreover, the Activities entry in the assay on microorganisms is recorded as “G B”. Also, the “Organism, effect” value in the assay with S. pneumoniae was “S. pneumoniae (H)”.
For “PF-517: peptide having multiple activities (chain 1 VKPTMTASLISTVC; chain 2 VKPTMTASLISTVC; Peptide with targeting and/or antimicrobial activity)”, in that order: “C. jejuni”, “G B” and “S. pneumoniae (M)”.
With “PF-542: peptide having multiple activities (chain 1 KKDNPSLNDQDKNAVLNLLALAK; chain 2 KKDNPSLNDQDKNAVLNLLALAK; Peptide with targeting and/or antimicrobial activity)”, the “Target(s)” value in assay [1] (setting [3]) is “C. jeikeium”. Also, the Activities entry in the assay on microorganisms is recorded as “G B”. For the same substance, the “Organism, effect” value in the assay on S. pneumoniae is “S. pneumoniae (H)”.
For “PF-573: peptide having multiple activities (chain 1 EKKLIVKLIDSIGKSHEEIVGAG; chain 2 EKKLIVKLIDSIGKSHEEIVGAG; Peptide with targeting and/or antimicrobial activity)”, in that order: “S. epidermidis; also recorded: S. pneumoniae”, “G B” and “S. pneumoniae (C)”.
“PF-625: peptide having multiple activities (SDSTNNARTRKKARDVTTKDIDK; Peptide with targeting and/or antimicrobial activity)”: in assay [1], the “Target(s) (microorganisms bound by the targeting peptide)” value is reported as “S. epidermidis; also recorded: M. luteus; also recorded: S. pneumoniae; also recorded: C. jeikeium”. For the same substance, the Activities result in the assay with microorganisms is given as “G B”. Further, in the assay with S. pneumoniae, the “Organism, effect” value was “S. pneumoniae (H)”.
In the case of “PF-626: peptide having multiple activities (KYDFDDFEPEEA; Peptide with targeting and/or antimicrobial activity)”, the “Target(s) (microorganisms bound by the targeting peptide)” value in assay [1] was “S. epidermidis and M. luteus and E. coli and C. albicans and MRSA and S. pneumoniae and E. faecalis and C. jeikeium”. The Activities result in the assay on microorganisms was “G B”. Further, the “Organism, effect” value in the assay on S. pneumoniae is “S. pneumoniae (H)”.
Turning to “PF-630: peptide having multiple activities (chain 1 IPATPIIHS; chain 2 IPATPIIHS; Peptide with targeting and/or antimicrobial activity)”, the “Organism, effect” value with MRSA is “MRSA (M)”. The Activities entry in the assay with microorganisms was “G B”.
Turning to “PF-656 (chain 1 RGMFVPFHDVDCVQ; chain 2 RGMFVPFHDVDCVQ; Peptide with targeting and/or antimicrobial activity)”, the “Organism, effect (morphology, biofilm and growth disruption)” value in the assay with MRSA is recorded as “MRSA (R)”. In addition, in assay [1], the “Target(s) (microorganisms bound by the targeting peptide)” value is reported as “Mycobacteria spp”.
Regarding “PF-661 (chain 1 PDEDIRRRAILPPAGPCRPMSPE; chain 2 PDEDIRRRAILPPAGPCRPMSPE; Peptide with targeting and/or antimicrobial activity)”, the “Organism, effect (morphology, biofilm and growth disruption)” value in the assay with MRSA was “MRSA (R)”. For the same substance, the “Target(s) (microorganisms bound by the targeting peptide)” value in assay [1] is “Mycobacteria spp”.
Consider “PF-680 (chain 1 ADPHPTTGI; chain 2 ADPHPTTGI; Peptide with targeting and/or antimicrobial activity)”, for which the “Organism, effect (morphology, biofilm and growth disruption)” value with MRSA was “MRSA (R)”. Further, the “Target(s) (microorganisms bound by the targeting peptide)” value in assay [1] was “Mycobacteria spp”.
The like results for “PF-692 (chain 1 GVAREDPLEPDPLAPIIDDSR; chain 2 GVAREDPLEPDPLAPIIDDSR; Peptide with targeting and/or antimicrobial activity)” were, in that order, “MRSA (R)” and “Mycobacteria spp”.
As to “PF-737: peptide having multiple activities (KSSGSSASASSTAGGSSSK; Peptide with targeting and/or antimicrobial activity)”, the “Target(s) (microorganisms bound by the targeting peptide)” value in assay [1] was “S. epidermidis; also recorded: S. pneumoniae”. Also, in the assay with microorganisms, the Activities entry is “G B”. Further, the “Organism, effect (morphology, biofilm and growth disruption)” value with S. pneumoniae is “S. pneumoniae (D)”.
As for “PF-744: peptide having multiple activities (LGVGTFVGKVLIKNQQKQKSKKKAQ; Peptide with targeting and/or antimicrobial activity)”, the “Target(s) (microorganisms bound by the targeting peptide)” value in assay [1] was “S. epidermidis and M. luteus and E. coli and MRSA and S. pneumoniae and E. faecalis and C. jeikeium”. The Activities result in the assay on microorganisms is reported as “G B”. The “Organism, effect (morphology, biofilm and growth disruption)” value with S. pneumoniae was “S. pneumoniae (H)”.
Regarding “PF-756: peptide having multiple activities (DALLRLA; Peptide with targeting and/or antimicrobial activity)”, the “Target(s) (microorganisms bound by the targeting peptide)” value in assay [1] was “S. epidermidis and M. luteus and C. albicans and MRSA and C. jeikeium”. For the same substance, in the assay with microorganisms, the Activities result is reported as “G B”. Further, the “Organism, effect (morphology, biofilm and growth disruption)” value in the assay on S. pneumoniae is “S. pneumoniae (A)”.
With “PF-757: peptide having multiple activities (PQAISSVQQNA; Peptide with targeting and/or antimicrobial activity)”, in assay [1], the “Target(s) (microorganisms bound by the targeting peptide)” value was “M. luteus and C. albicans and MRSA”. Besides, the Activities result with microorganisms is listed as “G B”. In the assay on S. pneumoniae, the “Organism, effect (morphology, biofilm and growth disruption)” value is listed as “S. pneumoniae (H)”.
With “PF-762: peptide having multiple activities (PAPAPSAPAPAPEQPEQPA; Peptide with targeting and/or antimicrobial activity)”, the “Target(s) (microorganisms bound by the targeting peptide)” value in assay [1] is “M. luteus; also recorded: C. albicans”. In addition, in the assay on microorganisms, the Activities entry is given as “G B”. For the same substance, the “Organism, effect (morphology, biofilm and growth disruption)” value in the assay with S. pneumoniae is reported as “S. pneumoniae (H)”.
